Source: patent US5049654A, “Calcitonin gene related peptide derivatives” (Toyo Jozo Kabushiki Kaisha, priority 1986, dated 1991)
Positions of bridges follow the written chain, without caps; N, C: chain ends. Non-standard residues stand in square brackets, D forms with d. Residues, ends and D or L forms follow the SMILES beside them. Asu = N[C@@H](CCCCCC(=O)O)C(=O)O; Mpa = O=C(O)CCS

Key:
Wistar rats [1] = test: Serum phosphate reducing activity, i.v. into the tail vein of Wistar rats, method of Goldenberg et al.; format: in vivo; conditions: rat; for reduction of serum phosphate concentration as compared with control group: vs dissolving medium group
Description: (§1) Desalanyl-deamino-c-CGRP, desalanyl-[Asu^2,7 -c-CGRP and desalanyl-[Asp^3, Asu^2,7 ]-c-CGRP (each 80 μg), and c-CGRP (Japan. Patent Unexam. Publ. No. 61-273581) and known h-CGRP (each 80 μg for control group) dissolved in citrate buffer, pH 6.5, containing 0.1% bovine serum albumin (hereinafter designated dissolving medium) (1 ml) were administered intravenously into the tail vein of Wistar rats, body weight 80-90 g, 5-6 rats in one group, at 20 or 80 μg/kg. After 30 and 60 mins. of administration, blood samples were collected from the abdominal descending aorta. The serum calcium concentration was measured by atomic adsorption spectrophotometry. Serum phosphate was measured by a method according to Goldenberg et al. [Clin. Chem., 12: 872-882 (1966)].

Physical properties: pI = format: physicochemical
Wistar rats [2] = test: Serum calcium reducing activity, i.v. into the tail vein of Wistar rats, atomic adsorption spectrophotometry; format: in vivo; conditions: rat; for reduction of serum calcium concentration as compared with control group: vs dissolving medium group
Description: as §1

[3] = test peptide 80 μg/kg vs c-CGRP at equivalent dose
[4] = test peptide 80 μg/kg vs h-CGRP 80 μg/kg
[5] = test peptide 20 μg/kg vs c-CGRP 20 μg/kg
[6] = test peptide 20 μg/kg vs h-CGRP 80 μg/kg

CC(C)C[C@H](NC(=O)[C@H](CCCNC(=N)N)NC(=O)[C@H](Cc1c[nH]cn1)NC(=O)[C@@H](NC(=O)[C@@H](NC(=O)[C@@H]1CCCCCC(=O)N[C@@H](CC(=O)O)C(=O)N[C@@H]([C@@H](C)O)C(=O)N[C@@H](C)C(=O)N[C@@H]([C@@H](C)O)C(=O)N1)C(C)C)[C@@H](C)O)C(=O)N[C@@H](C)C(=O)N[C@@H](CC(=O)O)C(=O)N[C@@H](Cc1ccccc1)C(=O)N[C@@H](CC(C)C)C(=O)N[C@@H](CO)C(=O)N[C@@H](CCCNC(=N)N)C(=O)N[C@@H](CO)C(=O)NCC(=O)NCC(=O)N[C@H](C(=O)NCC(=O)N[C@@H](CCCCN)C(=O)N[C@@H](CC(N)=O)C(=O)N[C@@H](CC(N)=O)C(=O)N[C@@H](Cc1ccccc1)C(=O)N[C@H](C(=O)N1CCC[C@H]1C(=O)N[C@H](C(=O)N[C@@H](CC(N)=O)C(=O)N[C@H](C(=O)NCC(=O)N[C@@H](CO)C(=O)N[C@@H](CCCCN)C(=O)N[C@@H](C)C(=O)N[C@@H](Cc1ccccc1)C(N)=O)C(C)C)[C@@H](C)O)C(C)C)C(C)C [desalanyl-[Asp^3,Asu^2,7]-c-CGRP] (DTAT[Asu]VTHRLADFLSRSGGVGKNNFVPTNVGSKAF-NH2; lactam N-5)
duration of serum phosphate reducing activity (Wistar rats [1]; 80 μg/kg i.v.): more than 2 hours
reduction of serum phosphate concentration as compared with control group (Wistar rats [1]; 80 μg/kg i.v., FIGS. 2 and 4): more than 30%
serum phosphate reducing activity compared with c-CGRP (Wistar rats [1]; [3]): significantly strong as compared with c-CGRP
serum phosphate reducing activity compared with h-CGRP (Wistar rats [1]; [4]): stronger than that of h-CGRP
pI (Physical properties: pI): more than 10.25
duration of serum calcium reducing activity (Wistar rats [2]; 80 μg/kg i.v.): more than 2 hours
reduction of serum calcium concentration as compared with control group (Wistar rats [2]; 80 μg/kg i.v., FIGS. 1 and 3): more than 30%
serum calcium reducing activity compared with c-CGRP (Wistar rats [2]; [3]): significantly strong as compared with c-CGRP
serum calcium reducing activity compared with h-CGRP (Wistar rats [2]; [4]): stronger than that of h-CGRP

CC(C)C[C@H](NC(=O)[C@H](CCCNC(=N)N)NC(=O)[C@H](Cc1c[nH]cn1)NC(=O)[C@@H](NC(=O)[C@@H](NC(=O)[C@@H]1CCCCCC(=O)N[C@@H](CC(N)=O)C(=O)N[C@@H]([C@@H](C)O)C(=O)N[C@@H](C)C(=O)N[C@@H]([C@@H](C)O)C(=O)N1)C(C)C)[C@@H](C)O)C(=O)N[C@@H](C)C(=O)N[C@@H](CC(=O)O)C(=O)N[C@@H](Cc1ccccc1)C(=O)N[C@@H](CC(C)C)C(=O)N[C@@H](CO)C(=O)N[C@@H](CCCNC(=N)N)C(=O)N[C@@H](CO)C(=O)NCC(=O)NCC(=O)N[C@H](C(=O)NCC(=O)N[C@@H](CCCCN)C(=O)N[C@@H](CC(N)=O)C(=O)N[C@@H](CC(N)=O)C(=O)N[C@@H](Cc1ccccc1)C(=O)N[C@H](C(=O)N1CCC[C@H]1C(=O)N[C@H](C(=O)N[C@@H](CC(N)=O)C(=O)N[C@H](C(=O)NCC(=O)N[C@@H](CO)C(=O)N[C@@H](CCCCN)C(=O)N[C@@H](C)C(=O)N[C@@H](Cc1ccccc1)C(N)=O)C(C)C)[C@@H](C)O)C(C)C)C(C)C [desalanyl-[Asu^2,7]-c-CGRP] (NTAT[Asu]VTHRLADFLSRSGGVGKNNFVPTNVGSKAF-NH2; lactam N-5)
duration of serum phosphate reducing activity (Wistar rats [1]; 80 μg/kg i.v.): more than 2 hours
reduction of serum phosphate concentration as compared with control group (Wistar rats [1]; 80 μg/kg i.v., FIGS. 2 and 4): more than 30%
serum phosphate reducing activity compared with c-CGRP (Wistar rats [1]; [3]): significantly strong as compared with c-CGRP
serum phosphate reducing activity compared with h-CGRP (Wistar rats [1]; [4]): stronger than that of h-CGRP
pI (Physical properties: pI): more than 10.25
duration of serum calcium reducing activity (Wistar rats [2]; 80 μg/kg i.v.): more than 2 hours
reduction of serum calcium concentration as compared with control group (Wistar rats [2]; 80 μg/kg i.v., FIGS. 1 and 3): more than 30%
serum calcium reducing activity compared with c-CGRP (Wistar rats [2]; [3]): significantly strong as compared with c-CGRP
serum calcium reducing activity compared with h-CGRP (Wistar rats [2]; [4]): stronger than that of h-CGRP

CC(C)C[C@H](NC(=O)[C@H](CCCNC(=N)N)NC(=O)[C@H](Cc1c[nH]cn1)NC(=O)[C@@H](NC(=O)[C@@H](NC(=O)[C@@H]1CSSCCC(=O)N[C@@H](CC(N)=O)C(=O)N[C@@H]([C@@H](C)O)C(=O)N[C@@H](C)C(=O)N[C@@H]([C@@H](C)O)C(=O)N1)C(C)C)[C@@H](C)O)C(=O)N[C@@H](C)C(=O)N[C@@H](CC(=O)O)C(=O)N[C@@H](Cc1ccccc1)C(=O)N[C@@H](CC(C)C)C(=O)N[C@@H](CO)C(=O)N[C@@H](CCCNC(=N)N)C(=O)N[C@@H](CO)C(=O)NCC(=O)NCC(=O)N[C@H](C(=O)NCC(=O)N[C@@H](CCCCN)C(=O)N[C@@H](CC(N)=O)C(=O)N[C@@H](CC(N)=O)C(=O)N[C@@H](Cc1ccccc1)C(=O)N[C@H](C(=O)N1CCC[C@H]1C(=O)N[C@H](C(=O)N[C@@H](CC(N)=O)C(=O)N[C@H](C(=O)NCC(=O)N[C@@H](CO)C(=O)N[C@@H](CCCCN)C(=O)N[C@@H](C)C(=O)N[C@@H](Cc1ccccc1)C(N)=O)C(C)C)[C@@H](C)O)C(C)C)C(C)C [desalanyl-deamino-c-CGRP] ([Mpa]NTATCVTHRLADFLSRSGGVGKNNFVPTNVGSKAF-NH2; disulfide 1-6)
duration of serum phosphate reducing activity (Wistar rats [1]; 20 μg/kg i.v.): ≥ 2 h
reduction of serum phosphate concentration as compared with control group (Wistar rats [1]; 20 μg/kg i.v., FIG. 2): more than 30%
duration of serum phosphate reducing activity (Wistar rats [1]; 80 μg/kg i.v.): ≥ 2 h
reduction of serum phosphate concentration as compared with control group (Wistar rats [1]; 80 μg/kg i.v., FIGS. 2 and 4): more than 30%
serum phosphate reducing activity compared with c-CGRP (Wistar rats [1]; [5]): significantly strong as compared with c-CGRP
serum phosphate reducing activity compared with h-CGRP (Wistar rats [1]; [6]): stronger than those of h-CGRP administered in quadruple the amounts
serum phosphate reducing activity compared with c-CGRP (Wistar rats [1]; [3]): stronger
serum phosphate reducing activity compared with h-CGRP (Wistar rats [1]; [4]): stronger than those of h-CGRP
pI (Physical properties: pI): more than 10.25
duration of serum calcium reducing activity (Wistar rats [2]; 20 μg/kg i.v.): ≥ 2 h
reduction of serum calcium concentration as compared with control group (Wistar rats [2]; 20 μg/kg i.v., FIG. 1): more than 30%
duration of serum calcium reducing activity (Wistar rats [2]; 80 μg/kg i.v.): ≥ 2 h
reduction of serum calcium concentration as compared with control group (Wistar rats [2]; 80 μg/kg i.v., FIGS. 1 and 3): more than 30%
serum calcium reducing activity compared with c-CGRP (Wistar rats [2]; [5]): significantly strong as compared with c-CGRP
serum calcium reducing activity compared with h-CGRP (Wistar rats [2]; [6]): stronger than those of h-CGRP administered in quadruple the amounts
serum calcium reducing activity compared with c-CGRP (Wistar rats [2]; [3]): stronger
serum calcium reducing activity compared with h-CGRP (Wistar rats [2]; [4]): stronger than those of h-CGRP
